Assay [1] addresses OBP13. The assay can be described thus: fluorescence titration, Scatchard analysis. It counts as binding, Locusta migratoria.
Assay [2] deals with OBP13. Kind of assay: competitive fluorescence binding assay. Set-up: species or system Locusta migratoria.
Assay [3] addresses Clvs2. Kind of assay: microscale thermophoresis. It counts as binding, Locusta migratoria. In general terms: Microscale thermophoresis detects binding through changes in fluorescence in a small temperature gradient.

In article PMC12422182 (Science Advances, 2025) one finds Kd and Ki data, which are given here for three molecules.

One may read the Kd as the free concentration of one partner at which half of the binding sites on the other are occupied at equilibrium, for simple one-to-one binding. Low readings indicate a tighter complex, high ones a looser complex. As a reminder, the Ki is a measure of affinity in units of concentration, obtained from inhibition or displacement. A low value points to higher affinity.

`c1ccc(Nc2cccc3ccccc23)cc1` [1-NPN, N-phenyl-1-naphthylamine] had a Kd in assay [1] of 13.8 µM.

`C=Cc1ccc(OC)cc1` [4VA, 4-vinylanisole]: the inhibition constant Ki in assay [2] turned out to be 3.46 µM. In other words, the single-digit micromolar range.

Turning to “phosphatidylinositol 4,5-bisphosphate [PI(4,5)P2]”, binding in assay [3] was put at a Kd of 5.86 ± 0.59 µM.
